Tests used:
HL 60 cells = test: differentiation induction of HL 60 cells to macrophages (NBT reduction); format: cell-based, human; settings: dose ratio test substance/calcitriol for comparable semi-maximum differentiation induction; 96 hours incubation
Protocol: The differentiation-stimulating action of calcitriol analogues is also detected quantitatively.
It is known in the literature [Mangelsdorf, D. J. et al., J. Cell. Biol. 98: 391 (1984)] that the treatment of human leukemia cells (promyelocyte cell line HL 60) in vitro with calcitriol induces the differentiation of cells to macrophages.
HL 60 cells are cultivated in tissue culture medium (RPMI 10% fetal calf serum) at 37° C. in an atmosphere of 5% CO2 in air.
For substance testing, the cells are centrifuged off, and 2.0×10^5 cells/ml in phenol red-free tissue culture medium is taken up. The test substances are dissolved in ethanol and diluted with tissue culture medium without phenol red to the desired concentration. The dilution stages are mixed with the cell suspension at a ratio of 1:10, and 100 μl each of this cell suspension that is mixed with substance is pipetted into an indentation of a 96-hole plate. For control, a cell suspension is mixed analogously with the solvent.
After incubation for 96 hours at 37° C. in 5% CO2 in air, 100 μl of an NBT-TPA solution (nitro blue tetrazolium (NBT), final concentration in the batch of 1 mg/ml, tetradecanoyl phorbolmyristate-13-acetate (TPA), final concentration in the batch of 2×10^−7 mol/l) is pipetted into each indentation of the 96-hole plate in the cell suspension.
By incubation for 2 hours at 37° C. and 5% CO2 in air, NBT is reduced to insoluble formazan because of the intracellular oxygen radical release, stimulated by TPA, in the cells that are differentiated to macrophages.
To complete the reaction, the indentations of the 96-hole plate are suctioned off, and the cells are affixed to the bottom of the plate by adding methanol and dried after affixing. To dissolve the intracellular formazan crystals that are formed, 100 μl of potassium hydroxide (2 mol/l) and 100 μl of dimethyl sulfoxide are pipetted into each indentation and ultrasonically treated for 1 minute. The concentration of formazan is measured by spectrophotometry at 650 nm.
As a yardstick for the differentiation induction of HL 60 cells to macrophages, the concentration of formed formazan applies.

[1] = acute hypercalcemic action (serum-calcium) in rats; format: in vivo, rat; settings: dose ratio test substance/calcitriol for comparable hypercalcemic action; one-time subcutaneous administration, male rats
Protocol: To determine the acute hypercalcemic action of various calcitriol derivatives, the test that is described below is carried out:
The action of control (solution base), reference substance (1,25-dihydroxy vitamin D3=calcitriol) and test substance is tested in each case after one-time subcutaneous administration in groups of 10 healthy male rats (140–170 g). During the testing time, the rats are kept in special cages to determine the excretion of water and mineral substances. Urine is collected in 2 fractions (0–16 hours and 16–22 hours). An oral dose of calcium (0.1 mmol of calcium in 6.5% alpha-hydroxypropylcellulose, 5 ml/animal) replaces at 1600 hours the calcium intake that is lacking by food deprivation. At the end of the test, the animals are killed by decapitation and exsanguinated to determine the serum-calcium values. For the primary screen test in vivo, an individual standard dose (200 μg/kg) is tested. For selected substances, the result is supported by establishing a dose-effect relation.
A hypercalcemic action is shown in serum-calcium level values that are higher than in the control.
The significance of differences between substance groups and controls and between test substance and reference substance are supported with suitable statistical processes.

[2] = metabolic stability in liver homogenate; format: in vitro ADME; settings: half-life in the liver homogenate (rat)
Protocol: To determine the metabolic stability, the test substance is incubated with tissue homogenate (from the rat liver) in the presence of buffer systems. The drop in starting concentration is tracked as a function of time. After a certain time, the incubation is stopped, and the unaltered test substance is extracted from the homogenate (diethyl ether), concentrated by evaporation under nitrogen, isolated via HPLC (mobile solvent: acetonitrile/water) and detected using UV-absorption.

calcitriol receptor = biological target: T1, calcitriol receptor (Sus scrofa, UniProt A3RGC1); test: calcitriol-receptor test (competition with 3H-calcitriol); settings: competition factor = concentration of test substance / concentration of calcitriol at 50% competition; protein extract from intestines of juvenile pigs
T1 sequence (A3RGC1 1-427): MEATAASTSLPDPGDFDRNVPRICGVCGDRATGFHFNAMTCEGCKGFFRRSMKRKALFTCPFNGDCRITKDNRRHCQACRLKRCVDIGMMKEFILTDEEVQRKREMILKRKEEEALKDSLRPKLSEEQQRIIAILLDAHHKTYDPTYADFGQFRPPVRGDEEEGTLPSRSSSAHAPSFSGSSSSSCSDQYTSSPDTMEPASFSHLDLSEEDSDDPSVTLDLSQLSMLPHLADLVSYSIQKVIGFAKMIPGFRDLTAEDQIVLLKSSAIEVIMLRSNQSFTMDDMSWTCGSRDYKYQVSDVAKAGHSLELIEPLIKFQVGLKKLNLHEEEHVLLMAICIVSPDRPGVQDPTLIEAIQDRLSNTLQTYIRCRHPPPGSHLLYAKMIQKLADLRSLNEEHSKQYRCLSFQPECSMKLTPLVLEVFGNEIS
Protocol: The vitamin D activity of the substances according to the invention is determined with the aid of the calcitriol-receptor test. It is carried out using a protein extract from the intestines of juvenile pigs.
Then, the samples are centrifuged at 10,000 g for 5 minutes at 4° C. The supernatant is decanted and measured in a β-counter after 1 hour of equilibration in Picofluor 15™.
The competition curves that are obtained at various concentrations of test substance as well as of reference substance (unlabeled calcitriol) at constant concentration of the reference substance (^3H-calcitriol) are placed in relation to one another, and a competition factor (KF) is determined.
It is defined as a quotient of the concentrations of the respective test substance and the reference substance, which are necessary for 50% competition:

Compound	DR Ca [1]	T½ [2] [h]	KF (calcitriol receptor)	DR HL 60 (HL 60 cells)	half-life ([2]; read-out: T½) [h]
C=C1/C(=C\C=C2/CCC[C@]3(C)[C@@H]([C@H](C)/C=C/CC4(C(C)=O)CC4)CC[C@@H]23)C[C@@H](O)C[C@@H]1O [Compound 66, (5Z,7E,22E)-(1S,3R)-25-Acetyl-26,27-cyclo-9,10-secocholesta-5,7,10(19),22-tetraene-1,3-diol]	30	1.83	10	0.5	–
C=C1/C(=C\C=C2/CCC[C@]3(C)[C@@H]([C@H](C)/C=C/CC4(C(=O)CCC)CC4)CC[C@@H]23)C[C@@H](O)C[C@@H]1O [Compound 71, (5Z,7E,22E)-(1S,3R)-25-(1-Oxobutyl)-26,27-cyclo-9,10-secocholesta-5,7,10(19),22-tetraene-1,3-diol]	100	2	9	1.7	–
C=C1/C(=C\C=C2/CCC[C@]3(C)[C@@H]([C@H](C)/C=C/CC4(C(=O)CCCC)CC4)CC[C@@H]23)C[C@@H](O)C[C@@H]1O [Compound 76, (5Z,7E,22E)-(1S,3R)-25-(1-Oxopentyl)-26,27-cyclo-9,10-secocholesta-5,7,10(19),22-tetraene-1,3-diol]	>100	>2	7	19	–
C=C1C(=CC=C2CCCC3(C)C2CCC3C(C)C=CCC2(C(=O)CCCCC)CC2)CC(O)CC1O [Compound 81, (5Z,7E,22E)-(1S,3R)-25-(1-Oxohexyl)-26,27-cyclo-9,10-secocholesta-5,7,10(19),22-tetraene-1,3-diol]	>>300	>2	40	9	–
C=C1/C(=C\C=C2/CCC[C@]3(C)[C@@H]([C@H](C)/C=C/CCC4(C(C)=O)CC4)CC[C@@H]23)C[C@@H](O)C[C@@H]1O [Compound 126, (5Z,7E,22E)-(1S,3R)-25-Acetyl-26,27-cyclo-24a-homo-9,10-secocholesta-5,7,10(19),22-tetraene-1,3-diol]	20	2	5	0.5	–
C=C1/C(=C\C=C2/CCC[C@]3(C)[C@@H]([C@H](C)[C@@H](O)CCCC4(C(C)=O)CC4)CC[C@@H]23)C[C@@H](O)C[C@@H]1O [Compound 127, (5Z,7E)-(1S,3R,22S)-25-Acetyl-26,27-cyclo-24a-homo-9,10-secocholesta-5,7,10(19)-triene-1,3,22-triol]	>100	2	30	4	–
C=C1C(=CC=C2CCCC3(C)C2CCC3C(C)C=CCCC2(C(=O)CCC)CC2)CC(O)CC1O [Compound 131, (5Z,7E,22E)-(1S,3R)-25-(1-oxobutyl)-26,27-cyclo-24a-homo-9,10-secocholesta-5,7,10(19) ,22-tetraene-1,3-diol]	30	2	10	0.2	–
C=C1C(=CC=C2CCCC3(C)C2CCC3C(C)C(O)CCCC2(C(=O)CCC)CC2)CC(O)CC1O [Compound 132, (5Z,7E)-(1S,3R,22S)-25-(1-Oxobutyl)-26,27-cyclo-24a-homo-9,10-secocholesta-5,7,10(19)-triene-1,3,22-triol]	>100	1.67	20	2	–
C=C1C(=CC=C2CCCC3(C)C2CCC3C(C)C=CCCC2(C(=O)CCCC)CC2)CC(O)CC1O [Compound 136, (5Z,7E,22E)-(1S,3R)-25-(1-Oxopentyl)-26,27-cyclo-24a-homo-9,10-secocholesta-5,7,10(19),22-tetraene-1,3-diol]	>100	>2	10	17	–
C=C1/C(=C\C=C2/CCC[C@]3(C)[C@@H]([C@H](C)/C=C/[C@@H](O)CCC4(C(C)=O)CC4)CC[C@@H]23)C[C@@H](O)C[C@@H]1O [Compound 168b, (5Z,7E,22E)-(1S,3R,24S)-25-acetyl-26,27-cyclo-24a,24b-dihomo-9,10-secocholesta-5,7,10(19),22-tetraene-1,3,24-triol]	>100	2	3	7	–
C=C1/C(=C\C=C2/CCC[C@]3(C)[C@@H]([C@H](C)CCCC(C)(C)O)CC[C@@H]23)C[C@@H](O)C[C@@H]1O [calcitriol, 1α,25-dihydroxy vitamin D3, reference compound]	1	–	–	1	2

Further lines, with some results ahead:

DR Ca [1]	T½ [2] [h]	KF (calcitriol receptor)	Compound	DR HL 60 (HL 60 cells)	half-life ([2]; read-out: T½) [h]
>100	1.5	1	C=C1/C(=C\C=C2/CCC[C@]3(C)[C@@H]([C@H](C)/C=C/[C@@H](O)CCC4(C(=O)CCC)CC4)CC[C@@H]23)C[C@@H](O)C[C@@H]1O [Compound 175b, (5Z,7E,22E)-(1S,3R,24S)-25-(1-oxobutyl)-26,27-cyclo-24a,24b-dihomo-9,10-secocholesta-5,7,10(19),22-tetraene-1,3,24-triol]	3	–
>100	1.67	2	C=C1/C(=C\C=C2/CCC[C@]3(C)[C@@H]([C@H](C)/C=C/[C@@H](O)CCC4(C(=O)CCCC)CC4)CC[C@@H]23)C[C@@H](O)C[C@@H]1O [Compound 182b, (5Z,7E,22E)-(1S,3R,24S)-25-(1-oxopentyl)-26,27-cyclo-24a,24b-dihomo-9,10-secocholesta-5,7,10(19) ,22-tetraene-1,3,24-triol]	18	–
>>1	1.33	3	C=C1/C(=C\C=C2/CCC[C@]3(C)[C@@H]([C@H](C)/C=C/[C@H](O)C4(CC)CC4)CC[C@@H]23)C[C@@H](O)C[C@@H]1O [Compound 214a, (5Z,7E,22E)-(1S,3R,24S)-25-Ethyl-26,27-cyclo-9,10-secocholesta-5,7,10(19),22-tetraene-1,3,24-triol]	1.5	–
>1	1.67	1	C=C1/C(=C\C=C2/CCC[C@]3(C)[C@@H]([C@H](C)/C=C/[C@@H](O)C4(CC)CC4)CC[C@@H]23)C[C@@H](O)C[C@@H]1O [Compound 214b, (5Z,7E,22E)-(1S,3R,24R)-25-ethyl-26,27-cyclo-9,10-secocholesta-5,7,10(19),22-tetraene-1,3,24-triol]	0.1	–
10	1.5	2	C=C1/C(=C\C=C2/CCC[C@]3(C)[C@@H]([C@H](C)/C=C/[C@@H](O)C4(/C=C/CC)CC4)CC[C@@H]23)C[C@@H](O)C[C@@H]1O [Compound 221b, [5Z,7E,22E,25(E)]-(1S,3R,24R)-25-(1-butenyl)-26,27-cyclo-9,10-secocholesta-5,7,10(19),22-tetraene-1,3,24-triol]	0.1	–
